The supplement of paper PMC10307832

Tests used:
Assay in all cases: relative viability (nuclei count vs DMSO), 5 days (fraction); higher = more cells survive
Quizartinib + Olaparib = compound: CC(C)(C)c1cc(NC(=O)Nc2ccc(-c3cn4c(n3)sc3cc(OCCN5CCOCC5)ccc34)cc2)no1 [Quizartinib] + O=C(c1cc(Cc2n[nH]c(=O)c3ccccc23)ccc1F)N1CCN(C(=O)C2CC2)CC1 [Olaparib] (partner 8 µM)
Method in brief: (§1)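 One day after seeding in 1536-well plates, lung cancer cell lines were dosed by pin tool. Dosing was either single-drug or a fixed anchor-drug dose plus five library-drug doses (not always all listed) in √10 steps. After 5 days, nuclei were stained in one fix-and-stain step and counted on 4× images, and relative viability is the nuclei count of treated wells over that of vehicle wells, given as the median of duplicate plates.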

Quizartinib + Pictilisib = compound: CC(C)(C)c1cc(NC(=O)Nc2ccc(-c3cn4c(n3)sc3cc(OCCN5CCOCC5)ccc34)cc2)no1 [Quizartinib] + CS(=O)(=O)N1CCN(Cc2cc3nc(-c4cccc5[nH]ncc45)nc(N4CCOCC4)c3s2)CC1 [Pictilisib] (partner 1 µM)
Method in brief: as §1

Quizartinib + Bortezomib = compound: CC(C)(C)c1cc(NC(=O)Nc2ccc(-c3cn4c(n3)sc3cc(OCCN5CCOCC5)ccc34)cc2)no1 [Quizartinib] + CC(C)C[C@H](NC(=O)[C@H](Cc1ccccc1)NC(=O)c1cnccn1)B(O)O [Bortezomib] (partner 0.002 µM)
Method in brief: as §1

YM155 + Dasatinib = compound: COCC[n+]1c2c(n(Cc3cnccn3)c1C)C(=O)c1ccccc1C2=O [YM155] + Cc1nc(Nc2ncc(C(=O)Nc3c(C)cccc3Cl)s2)cc(N2CCN(CCO)CC2)n1 [Dasatinib] (partner 0.075 µM)
Method in brief: as §1

| Cell Line | relative viability (Quizartinib + Olaparib; first compound 0.001 µM) | relative viability (Quizartinib + Olaparib; first compound 0.003162 µM) | relative viability (Quizartinib + Olaparib; first compound 0.01 µM) | relative viability (Quizartinib + Olaparib; first compound 0.03162 µM) | relative viability (Quizartinib + Olaparib; first compound 0.1 µM) | relative viability (Quizartinib + Pictilisib; first compound 0.001 µM) | relative viability (Quizartinib + Pictilisib; first compound 0.003162 µM) | relative viability (Quizartinib + Pictilisib; first compound 0.01 µM) | relative viability (Quizartinib + Pictilisib; first compound 0.03162 µM) | relative viability (Quizartinib + Pictilisib; first compound 0.1 µM) | relative viability (Quizartinib + Bortezomib; first compound 0.001 µM) | relative viability (Quizartinib + Bortezomib; first compound 0.003162 µM) | relative viability (Quizartinib + Bortezomib; first compound 0.01 µM) | relative viability (Quizartinib + Bortezomib; first compound 0.03162 µM) | relative viability (Quizartinib + Bortezomib; first compound 0.1 µM) | relative viability (YM155 + Dasatinib; first compound 0.002 µM) | relative viability (YM155 + Dasatinib; first compound 0.006325 µM) | relative viability (YM155 + Dasatinib; first compound 0.02 µM) | relative viability (YM155 + Dasatinib; first compound 0.06325 µM) |
| --- | --- | --- | --- | --- | --- | --- | --- | --- | --- | --- | --- | --- | --- | --- | --- | --- | --- | --- | --- |
| NCI-H596 | 0.728 | 0.636 | 0.732 | 0.658 | 0.717 | 0.427 | 0.332 | 0.455 | 0.418 | 0.416 | 1.15 | 0.92 | 1.1 | 1.19 | 1.2 | 0.653 | 0.58 | 0.544 | 0.692 |
| NCI-H647 | 0.622 | 0.507 | 0.669 | 0.499 | 0.585 | 0.466 | 0.434 | 0.536 |  | 0.474 | 0.91 | 1.08 | 0.71 | 0.999 | 1.29 | 0.151 | 0.241 | 0.192 | 0.149 |
| NCI-H650 | 0.373 | 0.334 | 0.44 | 0.4 | 0.474 | 0.992 | 0.814 | 0.923 | 0.923 | 1.12 | 0.785 | 0.768 | 0.818 | 0.885 | 1.01 | 0.446 | 0.524 | 0.509 | 0.44 |
| NCI-H661 | 0.727 | 0.712 | 0.751 | 0.733 | 0.723 | 0.425 | 0.388 | 0.364 |  | 0.467 | 0.747 | 0.903 | 0.684 | 0.791 | 0.878 | 0.742 | 0.802 | 0.925 | 0.749 |
| NCI-H727 | 0.66 | 0.678 | 0.843 | 0.708 | 0.769 | 0.277 |  | 0.365 | 0.351 | 0.485 | 0.656 |  | 0.955 | 0.767 | 0.833 | 0.359 | 0.5 | 0.389 | 0.352 |
| NCI-H838 | 0.641 | 0.683 | 0.77 | 0.678 | 0.361 | 0.389 | 0.479 | 0.356 | 0.39 | 0.377 | 0.458 | 0.763 | 0.65 | 0.926 | 0.534 |  | 0.291 | 0.299 | 0.281 |
| NCI-H1355 | 0.659 | 0.737 | 0.761 | 0.748 | 0.679 | 0.352 | 0.418 | 0.41 | 0.426 | 0.5 | 1.07 | 1.28 | 1.09 | 1.25 | 1.28 | 0.731 | 0.748 | 0.781 | 0.801 |
| NCI-H1437 | 0.613 | 0.587 | 0.627 | 0.584 | 0.468 | 0.475 | 0.37 | 0.425 | 0.327 | 0.314 | 0.354 | 0.492 | 0.393 | 0.49 | 0.255 | 0.351 | 0.324 | 0.348 | 0.253 |
| NCI-H1650 | 0.793 | 0.816 | 0.607 |  | 0.737 | 0.268 | 0.584 | 0.566 |  | 0.547 | 0.139 | 0.184 | 0.207 |  | 0.191 | 0.283 | 0.338 | 0.368 | 0.353 |
